Measurements as given in US20120016010A1, “RNA Interference Mediated Inhibition of BTB and CNC Homology 1, Basic Leucine Zipper Transcription Factor 1 (BACH1) Gene Expression Using Short Interfering Nucleic Acid (siNA)” (Merck Sharp & Dohme Corp, priority 2009, published 2012).

Key:
HMOX1 mRNA = test: HMOX1 (HO-1) mRNA upregulation in human bronchial epithelial cells (NHBE); type: cell-based; conditions: 48 hours post transfection, mean of 3 donors
Experimental: Human Bronchial Epithelial cells (NHBE cells) obtained from Lonza (Cat. No. CC-2540) were grown at 37deg in the presence of 5% CO2 and cultured in BEBM basal medium (Lonza, Cat. No. CC-3171) on Biocoat Collagen1 coated flasks (Becton Dickinson). NHBE cells were plated in collagen 1 coated plates and cultured in appropriate culture media. The cells were cultured for 24 hours after plating at 37 degrees in the presence of 5% CO2. siNAs were diluted in OptiMEM 1 to 1 uM and the transfection agent to 25 ug/ml. For formulation of the siNAs equal volumes of the diluted siNA and delivery lipid were combined and incubated for 20 minutes at room temperature. Cells were meanwhile trypsinised and resuspended in antibiotic free BEBM media at 150,000 cells/ml. 20 ul of the formulated siNA and 80 ul of BEBM media was added per well of a 96 well plate (6 replicates/data point/siNA concentration) so as to give a nine point dose range of the siNAs (100 nM, 30 nM, 10 nM, 3 nM, 1 nM, 0.3 nM, 0.1 nM, 0.03 nM, 0.01 nM). The time of incubation with the transfection-siNA complexes were 48 hours with one change of media at 24 hours. Total RNA was isolated from the cells in the 96-well plate format using the Automated SV96 Total RNA Isolation System (Promega) according to the manufacturer's instructions. The Biomek 2000 Laboratory Automation Workstation (Beckman Coulter) was used to apply the transfected cell lysates to a silica membrane. RNase-Free DNase I was then applied directly to the silica membrane to digest contaminating genomic DNA. The bound total RNA was further purified from contaminating salts, proteins and cellular impurities by simple washing steps. Finally, total RNA was eluted from the membrane by the addition of Nuclease-Free Water. A series of probes and primers were used for the detection of mRNA transcripts of Bach1, OAS1, IL8 and GAPDH (as control/normalisation) in the human cell lines. The assays were performed on an ABI 7900HT instrument according to the manufacturer's instructions. Primer Probe sets used: With Taqman data critical threshold values (Ct) were converted to copy numbers corresponding to the particular gene analysed in each well of the 384 well plate. Six identical wells were prepared in each plate for a given treatment. […] Relative abundance (aka relative expression) of a gene was determined by dividing the mean copy number of that gene with its GAPDH counterpart in that particular sample. EC50 values were calculated from the data using sigma plot. All calculations of the efficacy and potency of the siNAs were done relative to the non-targeting control siNA. Percentage knockdown was compared between the four lead siNA's. The data was analysed using an ANOVA test and then the p-values were corrected for multiple comparisons using the False Discovery Rate correction (FDR).

TLR7 = target: T1, TLR7 (Homo sapiens, UniProt Q9NYK1); type: cell-based
T1 construct: expressed in transfected cells
T1 sequence (Q9NYK1 27-1049): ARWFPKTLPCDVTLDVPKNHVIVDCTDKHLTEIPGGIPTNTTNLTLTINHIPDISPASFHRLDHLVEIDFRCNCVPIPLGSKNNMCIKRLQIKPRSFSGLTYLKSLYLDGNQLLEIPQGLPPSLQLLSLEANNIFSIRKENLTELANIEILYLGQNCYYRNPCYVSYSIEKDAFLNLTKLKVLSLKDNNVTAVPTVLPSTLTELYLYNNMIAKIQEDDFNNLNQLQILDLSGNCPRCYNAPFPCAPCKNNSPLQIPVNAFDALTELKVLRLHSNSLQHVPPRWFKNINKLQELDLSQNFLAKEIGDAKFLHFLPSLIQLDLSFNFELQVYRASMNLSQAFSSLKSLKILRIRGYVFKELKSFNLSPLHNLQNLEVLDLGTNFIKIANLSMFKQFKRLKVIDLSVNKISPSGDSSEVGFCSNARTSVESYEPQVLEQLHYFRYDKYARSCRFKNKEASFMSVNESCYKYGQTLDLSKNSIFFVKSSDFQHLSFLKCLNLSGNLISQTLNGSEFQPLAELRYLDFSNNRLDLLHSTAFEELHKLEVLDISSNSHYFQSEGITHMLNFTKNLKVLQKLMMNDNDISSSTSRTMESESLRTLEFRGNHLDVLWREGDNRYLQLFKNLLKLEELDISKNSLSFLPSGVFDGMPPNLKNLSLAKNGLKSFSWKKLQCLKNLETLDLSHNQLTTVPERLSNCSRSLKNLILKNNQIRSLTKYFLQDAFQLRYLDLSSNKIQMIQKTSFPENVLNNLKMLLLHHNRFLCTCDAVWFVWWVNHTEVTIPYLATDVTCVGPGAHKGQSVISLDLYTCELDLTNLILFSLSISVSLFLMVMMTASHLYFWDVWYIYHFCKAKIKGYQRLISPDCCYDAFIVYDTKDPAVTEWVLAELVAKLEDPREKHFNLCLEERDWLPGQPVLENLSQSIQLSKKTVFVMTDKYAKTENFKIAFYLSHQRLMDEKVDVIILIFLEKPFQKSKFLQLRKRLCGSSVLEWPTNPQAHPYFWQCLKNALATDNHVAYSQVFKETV
Experimental: Human U205-TLR7 and Human U205-TLR8 cells were grown at 37 degrees in the presence of 5% CO2 and were cultured in Dulbeco's modified Eagle's Medium (DMEM), 1% non essential amino acids, supplemented with fetal bovine serum at 10% and 100 ug/ml streptomycin and 100 u/ml penicillin. Stable expression of TLR7 and TLR8 was maintained by the addition of 300 ug/ml […].
TLR7 and TLR8 expressing U2OS osteosarcoma cells were seeded in 96-well plate format at a concentration of 2×10^4 cells/well 24 hours prior to transfection. Cells were transfected with the siNAs using DharmaFECT1 lipid transfection reagent using Resiquimod (R848) and the LyoVec-complexed, GU-rich oligonucleotide ssRNA40 respectively as controls (100 μl/well). (DharmaFECT1 was used as the delivery agent for the siNAs as it combines low immunostimulatory effects with high delivery efficiency.) The treatment media were replaced after 6 hours with antibiotic containing DMEM. Cells were harvested 24 hours following transfection. […] An agonist concentration range of 4-10 μg/ml was established since it caused optimal levels of IL8 mRNA expression for the assay.
TLR7 and TLR8 mediated immunostimulation was measured by the increase in IL8 mRNA levels when the siNAs were formulated with DharmaFect1 (Gibco BRL) and delivered to U2OS cells that were engineered to stably express TLR7 or TLR8. The cells were treated with the TLR7 and TLR8 agonists Resiquimod (R848) and ssRNA40/LyoVec respectively to act as positive controls for IL8 mRNA induction. IL8 mRNA levels were used as a biomarker of TLR7 and TLR8 mediated immunostimulation.

Substance	Maximum HMOX1 upregulation (HMOX1 mRNA)	Immunostimulation TLR7 mediated in Human U2OS- TLR7 cells IL8 mRNA increase n = 4 individual expts (TLR7)	TLR7 mediated immunostimulatory activity (IL8 mRNA induction) (TLR7)	EC50 (HMOX1 mRNA)
29947-DC (sense GGAAUCCUGCUUUCAGUUUTT; antisense AAACUGAAAGCAGGAUUCCUU; inverted abasic caps (B), 2'-modified nucleotides, further chemistry not given here)	1566%	No significant effect up to 100 nM	no or very low TLR7 mediated immunostimulatory activity	–
29956-DC (sense GUCUGAGUGUCCGUGGUUATT; antisense UAACCACGGACACUCAGACUU; inverted abasic caps (B), 2'-modified nucleotides, further chemistry not given here)	2416%	No significant effect up to 100 nM	–	33.1 nM
29957-DC (sense GCAGUUACUUCCACUCAAGTT; antisense CUUGAGUGGAAGUAACUGCUU; inverted abasic end caps, TT overhangs, modified nucleotides, further chemistry not given here)	290%	Upregulation up to 100 nM	–	29.8 nM
29961-DC (sense CUACACUGCUAAACUGAUUTT; antisense AAUCAGUUUAGCAGUGUAGUU; inverted abasic end caps, TT overhangs, modified nucleotides, further chemistry not given here)	10266%	No significant effect up to 100 nM	no or very low TLR7 mediated immunostimulatory activity	50.4 nM
29964-DC (sense GAUUUGCAGGUGAUGUUAATT; antisense UUAACAUCACCUGCAAAUCUU; inverted abasic end caps, TT overhangs, modified nucleotides, further chemistry not given here)	4800%	No significant effect up to 100 nM	no or very low TLR7 mediated immunostimulatory activity	30.3 nM
29984-DC (sense GUUAAAGGAUUUGAACCUUTT; antisense AAGGUUCAAAUCCUUUAACUU; inverted abasic end caps, TT overhangs, modified nucleotides, further chemistry not given here)	153%	No significant effect up to 100 nM	no or very low TLR7 mediated immunostimulatory activity	–
29988-DC (sense AUUUGAACCUUUAAUUCAGTT; antisense CUGAAUUAAAGGUUCAAAUUU; inverted abasic end caps, TT overhangs, modified nucleotides, further chemistry not given here)	550%	No significant effect up to 100 nM	no or very low TLR7 mediated immunostimulatory activity	34.5 nM
